Reference: patent US11897910B2, “Mito-honokiol compounds and methods of synthesis and use thereof” (The Medical College of Wisconsin, Inc., priority 2015, dated 2024)
Values belong to the molecule of their own block, whether it stands above or below them.

Key:
[1] = tested on: human MiaPaCa-2 pancreatic cancer cells; test: Antiproliferative effect on pancreatic cancer cells; type: cell-based
From the text: FIG. 3. Comparison of anti-proliferative effects of honokiol (HNK), mito-honokiol (Mito-HNK) and bis-mito-honokiol (Mito-bis-HNK) on human MiaPaCa-2 pancreatic cancer cells.
FIG. 15A-15F. Effects of mito-honokiol alone or in combination with 2-deoxyglucose on pancreatic cells. […] Further, the combining the mito-honokiols of the present invention with antiglycolytic agents (e.g. 2-deoxyglucose) reduced the rate of proliferation of pancreatic cancer cells than either treatment alone, as shown for a number of different concentrations in FIG. 15C-F.
The inventors also compared the antiproliferative activity of mito-honokiol analogs to honokiol using human MiaPaCa-2 pancreatic cancer cells (FIG. 3).

DMS-273 cells = test: Cell proliferation assay (IncuCyte); type: cell-based; settings: Homo sapiens
Procedure: (§1) For the cell proliferation assay, cells were seeded onto 96-well tissue culture plates at 2-3,000 cells per well. Twenty-four hours after seeding, treatment group cells were exposed to various concentrations of HNK for 48 hours, and control group cells received fresh medium. The plate was incubated at 37° C. and 5% CO2 and monitored in IncuCyte (Essen Bioscience, Ann Arbor, MI). Data analysis was conducted using IncuCyte […] software. All assays were performed in triplicate. Next, we examined the anticancer effects of Mito-HNK compared to HNK in vitro. Various doses of HNK and Mito-HNK were treated in either H2030-BrM3 or DMS-273 cells, and the antiproliferative effects were monitored with an IncuCyte Live-Cell Imaging Analyzer. […] Furthermore, we examined the anti-invasive effects of Mito-HNK in H2030-BrM3 and DMS-273 cells via a Boyden chamber invasion assay. Both cells were treated with vehicle control (DMSO), HNK (20 μM), and Mito-HNK (0.2 μM) for 36 hours, and invaded cells were determined.

H2030-BrM3 cells = test: Cell proliferation assay (IncuCyte); type: cell-based; settings: Homo sapiens
Procedure: as §1

MiaPaCa-2 cells = test: Intracellular ATP, combination with 2-deoxyglucose; type: cell-based, human; settings: combined with 2-deoxyglucose (2-DG)
From the text: FIG. 4. Synergistic depletion of intracellular ATP in MiaPaCa-2 cells by combination of 2-deoxyglucose (2-DG) and honokiol (HNK) and mito-honokiol (Mito-HNK). The data were obtained on the human pancreatic cancer MiaPaCa-2 cell line. […] In one embodiment, the mito-honokiols of the present invention may be also used in combination with standard-of-care chemotherapeutics or with ionizing radiation to treat resistant cancer cells.

STAT3 phosphorylation = test: PathScan RTK signaling array; type: cell-based; settings: DMS-273 cells; HNK 10 μM and 20 μM, Mito-HNK 0.2 μM, six hours
Procedure: H2030-BrM3 and DMS-273 cells treated with control DMSO and various doses of HNK and Mito-HNK for four hours were lysed with 200 μl lysis buffer containing proteinase inhibitor cocktails (Cell Signaling Technology, Danvers, MA), sheared 10 times with a 28-gauge needle, spun at 16,000×g for 30 min, and normalized by protein concentration as determined by the Bradford method. Normalized lysate was resolved in a PathScan RTK Signaling Array, and the signaling array was examined by a Li-COR Odyssey infrared imaging system (Li-COR Biosciences-Biotechnology, Lincoln, NE).
For the RTK signaling array, we treated DMS-273 cells with two different doses of HNK (10 μM and 20 μM) and Mito-HNK (0.2 μM) for six hours.

[2] = tested on: H2030-BrM3 and DMS-273 orthotopic lung tumors; test: Orthotopic lung cancer model; type: in vivo, mice
B16.F10 cells = test: B16.F10 orthotopic melanoma model; type: in vivo, mice
Procedure: (A) Kaplan-Maier survival curves of B16-F10 engrafted mice treated on days 7, 9, 11, 14, 16, & 18 with Mito-MGN [1 mg] or with α-PD-L1 [250 μg]. (B) Tumor size (mm2) over time. (C) Tumor volume measured on day 19. Values are mean±SD, n=4 mice/group. ***, P≤0.001.
T cells were detected using CD3 immunostaining (brown). Arrowheads highlight CD3+ T cells in melanoma (blue cells). Data representative of 4 separate mice.

[3] = Serum toxicity markers (pilot study); settings: three weekly treatment at 5 mg/kg
UACC-62-WT cells [4] = test: UACC-62-WT orthotopic melanoma xenograft; type: in vivo, mice; settings: 1 mg injected intratumorally in 50 μL
Procedure: (A) Representative μCT images on day 58 from UACC-62-WT xenographed (T=tumor) mice treated twice a week with vehicle (left) or 1 mg Mito-MGN (right). Data representative of 2 mice per group. (B) Quantification of tumor volume (mm^3) measured using calipers ex vivo on day 58.
The efficacy of Mito-MGN in a murine model of melanoma was tested using cells sensitive and resistant to BRAF inhibitors as tools to probe the anti-tumor effects of targeted OXPHOS inhibitors.

UACC-62 cells = test: TMRE flow cytometry, mitochondrial depolarization; type: cell-based, human; settings: pilot experiments
From the text: (A) Representative TMRE quantification using flow cytometry. (B) Mean fluorescence intensity (MFI) of TMRE in Mito-MGN-treated and vehicle (V)-treated UACC-62-WT cells. Values are mean±SEM, n=3
Not to be bound by any theory, but it is believed that Mito-MGN-induced ROS halts melanoma proliferation through induction of mitophagy. ROS at high μM concentrations have detrimental effects on lipids, proteins, and DNA, whereas at nM concentrations, ROS exerts potent signaling effects (11, 41, 65). We postulate that OXPHOS inhibition by Mito-MGN increases ROS levels, which in turn stimulates mitophagy. To test this hypothesis, we will use an iterative approach to first measure mitochondrial membrane damage, followed by the parallel examination of molecular markers and phagolysome activation needed for mitophagy. Tetramethylrhodamine ethyl ester (TMRE) is retained in metabolically active mitochondria and released into the cytosol and extracellular space of cells with depolarized/damaged mitochondria (67), as illustrated in our recent paper using related mitochondria-targeted agents (12).

UACC-62-R cells [5] = test: Hydroethidine oxidation products by HPLC; type: cell-based, human; settings: 24 h preincubation
Procedure: (§2) Mito-magnolol stimulates ROS and causes oxidation of mitochondrial antioxidative enzyme in BRAFV600E inhibitor-resistant melanoma cells. UACC-62-WT and UACC-62-R cells were preincubated with Mito-magnolol for 24 h and then treated with hydroethidine. Cell lysates were analyzed by HPLC and the superoxide-specific hydroxylation product (2-OH-E^+) and other two-electron and one-electron oxidation products (E^+ and E^+-E^+) were determined.
(§3) Hydroethidine (HE) was used to measure intracellular O2^⋅− formation. 2-Hydroxyethidium (2-OH-E^+), the diagnostic marker product of O2^⋅−/HE reaction (FIG. 23A) increased in Mito-MGN treated melanoma cells (FIG. 23B). In addition, Mito-MGN induced the iron or peroxidase-dependent oxidation of HE as evidenced by enhanced intracellular formation of E^+-E^+ and E^+ (FIG. 23B).

UACC-62-WT cells [6] = test: Hydroethidine oxidation products by HPLC; type: cell-based, human; settings: 24 h preincubation
Procedure: as §2, §3

UACC-62-R cells [7] = test: Melanoma cell proliferation monitored in real time; type: cell-based, human; settings: 0.1-0.3 μM, six days
Procedure: (§4) UACC-62-WT cells (A) or UACC-62-R cells (B) were treated with PLX4720 as indicated. Cell proliferation was monitored in real time with the continuous presence of indicated treatments until the end of each experiment. (C) Representative images shown are the segmentation of phase contrast images (segmentation mask illustrated in black). (D) The cell confluence (as control groups reach 95% confluency) is plotted against concentration of PLX4720 inhibitor. Dashed lines represent the fitting curves used to determine the IC50 values. […] (F) The effect of Mito-MGN (0.2 μM) on mitochondrial complex I and II activities (oxygen consumption rate, OCR) is shown for wild-type (red) and resistant UACC-62 (blue) melanoma cells.
(§5) UACC-62-WT cells (A) or UACC-62-R cells (B) were treated with Mito-MGN as indicated. Cell proliferation was monitored in real time with the continuous presence of indicated treatments until the end of each experiment. (C) Representative images shown are the segmentation of phase contrast images (segmentation mask illustrated in black). (D) The cell confluence (as control groups reach 95% confluency) is plotted against Mito-MGN concentration. Dashed lines represent the fitting curves used to determine the IC50 values.
(§6) To establish PLX4720-resistant melanoma cell line, UACC-62 cells (ATCC) were continuously exposed to increasing concentrations of PLX4720 (1-20 μM) for six months until the logarithmic growth resumed. PLX4720-containing media were replaced twice a week. Resistant cell line (UACC-62R) was maintained in routine culture in the presence of 20 μM PLX4720. FIGS. 21A and 21B show the effect of PLX4720 on proliferation of UACC-62-WT and UACC-62-R cells.
(§7) FIGS. 22A and 22B show the effect of Mito-magnolol on proliferation of UACC-62-WT and UACC-62-R cells. Cell proliferation was monitored in real time for cells incubated continuously under treatment conditions as shown.

UACC-62-WT cells [8] = test: Melanoma cell proliferation monitored in real time; type: cell-based, human
Procedure: as §4, §5, §6, §7

[9] = tested on: mitochondrial Prx3 in WT melanoma cells; test: Peroxiredoxin redox status (Western blot); type: cell-based, human; settings: cytosolic Prx1 largely unaffected
From the text: (§8) (A) Western blot show the redox status of cytosolic (Prx1) and mitochondrial (Prx3) peroxiredoxins. (B) Quantitative analysis of the extent of Prx1 and Prx3 oxidation. Values are mean±SD, n=3. **, P≤0.01. (C) Scheme showing the pathways controlling the redox state and covalent dimer formation of peroxiredoxins in cells.
(§9) Peroxiredoxins (Prx) are abundant endogenous intracellular thiol peroxidases that act as compartment-specific sensors of hydrogen peroxide (H2O2) in mitochondrial (Prx3) and cytosolic (Prx1) compartments (62-64). Prxs rapidly react with H2O2 (k=10^6-10^7 M^−1 s^−1) (64, 65). Prx3 accounts for nearly 90% of mitochondrial peroxidase activity (64, 66).

[10] = tested on: mitochondrial Prx3 in resistant melanoma cells; test: Peroxiredoxin redox status (Western blot); type: cell-based, human; settings: cytosolic Prx1 largely unaffected
From the text: as §8, §9

[11] = tested on: mitochondrial complex I in UACC-62-WT cells; test: Seahorse XF96 bioenergetics (OCR, complex I-mediated respiration, glycolysis); type: cell-based, human
Procedure: (§10) Melanoma cells harboring BRAF oncogenic mutations use aerobic glycolysis (the Warburg effect) to meet their energy demands. […] One reason for the acquired resistance to PLX4720 is the adaptive change from glycolysis to OXPHOS.
(§11) We used a Seahorse XF96 Analyzer to measure OCR, a readout of mitochondrial respiration, and […], a surrogate marker for glycolysis, in real time. OCR is measured after adding substrates and inhibitors of complexes I-IV. In preliminary studies, Mito-MGN inhibited complex I activity in both WT and resistant cells (FIG. 21F).

[12] = molecular target: mitochondrial complex I in UACC-62-R cells; test: as above; type: cell-based, human
Procedure: as §10, §11

[13] = 1 mg/tumor Mito-MGN or 250 μg anti-PD-L1 antibody

Compound: C=CCc1ccc(OCCCCCCCCCC[P+](c2ccccc2)(c2ccccc2)c2ccccc2)c(-c2ccc(OCCCCCCCCCC[P+](c3ccccc3)(c3ccccc3)c3ccccc3)c(CC=C)c2)c1 [Bis-Mito-HNK]
antiproliferative potency compared with honokiol ([1]; MiaPaCa-2): more potent than honokiol

IC50 (H2030-BrM3 cells): 27 µM
Compound: C=CCc1ccc(O)c(-c2ccc(O)c(CC=C)c2)c1 [HNK, honokiol]
IC50 (DMS-273 cells): 30 µM | cellular ATP levels (MiaPaCa-2 cells): synergize with 2-deoxyglucose (2-DG) in decreasing cellular ATP levels | STAT3 phosphorylation levels (STAT3 phosphorylation): dramatically decreased | tumor growth ([2]; 7.5 μmol/kg oral gavage five times per week for three weeks): did not significantly reduce tumor growth | observable side effects ([2]; H2030-BrM3 and DMS-273 orthotopic models): did not show any observable side effects

Compound: C=CCc1ccc(O)c(-c2cc(CC=C)ccc2OC[P+](c2ccccc2)(c2ccccc2)c2ccccc2)c1.[Br-] [Mito-MGN]
melanoma growth in vivo (B16.F10 cells; [13]): decreased melanoma growth | survival (B16.F10 cells; [13]): increased survival | T cell levels in excised tumors (CD3 immunostaining) (B16.F10 cells; compared to vehicle control tumors): increased T cell levels | efficiency in abrogating tumor progression and size (B16.F10 cells; compared with anti-PD-L1): equal to anti-PD-L1 | BUN ([3]; serum, day 19, Mean ± SE, n = 4-5, ref (12-28)): 24.5 ± 1.9 mg/dL | ALT ([3]; serum, day 19, Mean ± SE, n = 4-5, ref (22-77)): 58.7 ± 12.7 IU/L | AP ([3]; serum, day 19, Mean ± SE, n = 4-5, ref (45-222)): 36.7 ± 10.8 IU/L | liver or kidney toxicity [3]: little liver or kidney toxicity | tumor size (μCT in vivo and ex vivo excised tumors) (UACC-62-WT cells [4]): potently reduced tumor size | mitochondrial membrane potential (TMRE) (UACC-62 cells): dose dependently decreases mitochondrial membrane potential | HE oxidation products 2-OH-E+, E+ and E+-E+ (UACC-62-R cells [5]): significantly higher amount | HE oxidation products 2-OH-E+, E+ and E+-E+ (UACC-62-WT cells [6]): significantly higher amount | sensitivity of proliferation (UACC-62-R cells [7]): exquisitely sensitive | sensitivity of proliferation (UACC-62-WT cells [8]; 0.1-0.3 μM, six days): exquisitely sensitive | antiproliferative effects ([1]; 1 μM, FIG. 15B): exhibit antiproliferative effects | oxidation of mitochondrial Prx3 [9]: stimulated the oxidation of mitochondrial Prx3 | oxidation of mitochondrial Prx3 [10]: stimulated the oxidation of mitochondrial Prx3 | OXPHOS (OCR) ([11]; WT cells): significantly inhibiting OXPHOS | glycolysis (SCAR/PPR) ([11]; WT cells): minimally affected glycolysis | IC50 ([11]; read-out: IC50 to inhibit complex I-mediated respiration, 1 h treatment, UACC-62-WT): 0.35 µM | IC50 ([12]; read-out: IC50 to inhibit complex I-mediated respiration, 1 h treatment, UACC-62-R): 0.66 µM | OXPHOS (OCR) ([12]; resistant cells): significantly inhibiting OXPHOS | glycolysis (SCAR/PPR) ([12]; resistant cells): minimally affected glycolysis

Compound: CCCS(=O)(=O)Nc1ccc(F)c(C(=O)c2c[nH]c3ncc(Cl)cc23)c1F [PLX4720, reference compound]
cells after six days of treatment (phase contrast images) (UACC-62-WT cells [8]; 10 μM, WT versus resistant cells): considerably fewer WT cells compared to resistant cells
